Test results: US7402575B2, “Methods of treating inflammation” (priority 2003, dated 2008)
Entries after “also recorded” stand apart in the source; their conditions may differ.

What was measured:
E. coli sepsis in dogs [1] = assay: Early Treatment Study: TAC given 1.5 h after sepsis induced, hemodynamics; assay type: in vivo, dog; conditions: for Arterial pH / HR / Hct / Lactate / Pwp / SVR: mean±SE, n=5
Procedure: (§1) In all of the studies outlined, the animals were randomized into treatment and nontreatment placebo groups (see below). The E. coli model used in these studies was identical to that previously described (6). Sepsis was induced by the intravenous infusion of 10^10 colony forming units of live E. coli (designation 011:B4). The bacteria were suspended in normal saline solution and were given over 0.5 hour. A constant infusion of approximately 5×10^9 colony forming units/hour of E. coli was then maintained for the remainder of the experiment.
(§2) The animals (16-24 kg) were initially anesthetized with thiopental sodium (20 mg/kg, intravenously) and constantly infused with sufentanil citrate (1 ug/min) and midazolam (5 ug/kg/min) (33). Drug rates were adjusted as required to abolish the palpebral reflex. The animals were placed in the supine position; the trachea was intubated with an endotracheal tube; and the lungs were mechanically ventilated at a tidal volume of 20 ml/kg. The ventilator rate was initially set to maintain blood pH at approximately 7.35 and was increased as necessary to reverse the metabolic acidosis that developed over the course of the study. Approximately 100% oxygen was inspired, so that hypoxemia would not affect the results of the study.
(§3) Under sterile conditions, the right jugular vein was percutaneously cannulated with an introducer (Arrow International, Reading, Pa.). A thermister tipped catheter was advanced from the jugular vein into the pulmonary artery to measure mean pulmonary arterial pressure (Ppa), mean pulmonary capillary wedge pressure (Pwp), mean right atrial pressure (Pra), thermodilution cardiac output (CO, Columbus Instruments, OH), and to obtain mixed venous oxygen blood samples. Another introducer was placed into the left jugular vein for administration of intravenous saline solution and the treatment or placebo drug (see below). A polyethylene catheter was also percutaneously placed into the femoral artery to measure mean blood pressure (MAP), and to obtain samples of blood for blood gas analysis, blood hematocrit (Hct), lactate concentrations, and blood cultures in some cases. Lactate was measured by an automated lactate dehydrogenase based assay (34) and was performed only in ETS and LTS because of equipment difficulties in the Pretreatment Study.
(§4) All catheters were connected to transducers (Cobe Laboratories), were referenced relative to the left atrium and were connected to a chart recorder (Astro-Med, W Warwick, R.I.). Heart rate (HR) was measured from the recorder tracing. Stroke-volume (SV) was calculated as CO/HR. Systemic vascular resistance (SVR) was calculated from [(MAP-Pra)/CO]×80. At each measurement interval (see below), a full set of measurements included MAP, CO, Ppa, Pra, Pwp, Hct, HR, SV, and arterial and mixed venous blood samples.
(§5) In the analysis, stroke work (SW) was the primary index of cardiac performance and the primary hemodynamic endpoint chosen in the in vivo studies (35,18) (see Discussion). At constant preload, SW reflects both the decreases in afterload and the changes in contractile function that accompany sepsis. SW was determined at approximately the same Pwp at each measurement interval. The baseline Pwp usually averaged ≈8-10 mmHg, and normal saline solution was given as necessary to maintain Pwp constant over the experimental period. SW was calculated from SV (MAP-Pwp).
Early Treatment Study. The purpose of this study was to assess the effect of TAC when treatment was administered during sepsis, but before myocardial depression developed. Treatment was administered at 1.5 hours after bacteremia was begun (6). Based on the lack of response of some animals in the LTS, the initial dose of TAC was increased to 400 mg, and followed by 50 mg/h mixed in 50 cc D5W over the remainder of the study. The placebo group received an identical amount of D5W over the course of the study.

[2] = Plasma concentrations of TAC in the previous in vivo experiments; parameters: species or system dog; conditions: in vivo experiments of Example 2; printed as low 10^−5M range
Procedure: The dose of TAC used in the Pretreatment Study was based on calculations previously obtained from the ventricular trabecular experiments in which it was estimated that a plasma concentration of at least 10^−5M would be required to inhibit lysozyme's depressant activity in vivo (49). Based on the molecular weight of TAC (628 MW), the average size of the dog (20 kg), and the estimated distribution space of approximately 50% of total body weight, the dose chosen was 100 mg (Sigma Corp, Canada, Oakville, Ontario) mixed in 200 ml 5% dextrose in water (D5W) that was given intravenously over 0.5 hr. After this initial dose, a dose of 50 mg mixed in 50 ml D5W was continuously infused over each hour for the remainder of the study. The placebo group received an identical amount of D5W over the course of the study.
In the present study, the inventors examined whether the administration of chitobiose after 3.5 hrs of E. coli sepsis at a relatively high dose could reverse the myocardial depression that develops in this model.

E. coli sepsis in dogs [3] = assay: Late Treatment Study: TAC given after 3.5 h of sepsis, hemodynamics; assay type: in vivo, dog; conditions: for Arterial pH / HR / Hct / Lactate / Pwp / SVR: mean±SE, n=5
Procedure: as §1, §2, §3, §4, §5
Late Treatment Study. In LTS, the objective was to see if TAC would reverse myocardial depression once it had already been produced. TAC was administered after 3.5 hours after the initiation of bacteria and was given over a 0.5 hour in 200 ml D5W. Because it was also noted in the in vitro trabecular preparation that once lysozyme was already placed into the bath, a higher concentration of TAC was required to inhibit the effect of lysozyme, the initial dose was increased to 250 mg in LTC. […]

[4] = Late Treatment Study, 2 h posttreatment (6 h post-sepsis)
[5] = Late Treatment Study, 3.5 h post sepsis, before TAC
[6] = Late Treatment Study, immediately after TAC infusion

With `CC(=O)N[C@H]1[C@H](O[C@H]2[C@H](O)[C@@H](NC(C)=O)C(O)O[C@@H]2CO)O[C@H](CO)[C@@H](O[C@@H]2O[C@H](CO)[C@@H](O)[C@H](O)[C@H]2NC(C)=O)[C@@H]1O` (some centres unmarked) [TAC, N,N′,N″ triacetylglucosamine] the “CO over the course of sepsis” value (E. coli sepsis in dogs [1]; 6 h) was “increased over the course of sepsis as compared with the nontreated group; also recorded: significant increases”, the “SV over the course of sepsis” value (E. coli sepsis in dogs [1]; 6 h) was “showed a similar finding” and the “Arterial pH” value (E. coli sepsis in dogs [1]; 6 h after sepsis initiated) was 7.24 ± .03. For the same molecule, the HR (E. coli sepsis in dogs [1]; 6 h after sepsis initiated) was 94 ± 8 beats/min, the Hct (E. coli sepsis in dogs [1]; 6 h after sepsis initiated) was 30 ± 4% and the Lactate (E. coli sepsis in dogs [1]; 6 h after sepsis initiated) was 1 ± .1 mM. For the same molecule, the Pwp (E. coli sepsis in dogs [1]; 6 h after sepsis initiated) was 10.9 ± 1 mmHg, the SVR (E. coli sepsis in dogs [1]; 6 h after sepsis initiated) was 1792 ± 233 dynes s cm^−5 and the “Arterial pH” value (E. coli sepsis in dogs [1]; baseline) was 7.23 ± .03. For the same molecule, the HR (E. coli sepsis in dogs [1]; baseline) was 68 ± 9 beats/min, the Hct (E. coli sepsis in dogs [1]; baseline) was 31 ± 2% and the Lactate (E. coli sepsis in dogs [1]; baseline) was 1 ± .1 mM. The Pwp (E. coli sepsis in dogs [1]; baseline) was 10 ± .5 mmHg, the SVR (E. coli sepsis in dogs [1]; baseline) was 2160 ± 581 dynes s cm^−5 and the “MAP over the 6 hrs of sepsis” value (E. coli sepsis in dogs [1]; treatment group) was “increased in 4 of the 5 dogs”. For the same molecule, the “Plasma concentrations of TAC” value [2] was ~10^−5 M, the “SW once myocardial depression was observed” value (E. coli sepsis in dogs [3]; Late Treatment Study) was “little effect of treatment on SW” and the Hemodynamics (E. coli sepsis in dogs [3]; Late Treatment Study (FIG. 11)) was “no effect”. For the same molecule, the “Arterial pH” value (E. coli sepsis in dogs [3]; [4]) was 7.20 ± .04, the HR (E. coli sepsis in dogs [3]; [4]) was 90 ± 9 beats/min and the Hct (E. coli sepsis in dogs [3]; [4]) was 29 ± 6%. The Lactate (E. coli sepsis in dogs [3]; [4]) was 1.3 ± .4 mM, the Pwp (E. coli sepsis in dogs [3]; [4]) was 10 ± 1.6 mmHg and the SVR (E. coli sepsis in dogs [3]; [4]) was 1280 ± 182 dynes s cm^−5. The “Arterial pH” value (E. coli sepsis in dogs [3]; [5]) was 7.24 ± .05, the HR (E. coli sepsis in dogs [3]; [5]) was 113 ± 9 beats/min and the Hct (E. coli sepsis in dogs [3]; [5]) was 26 ± 5%. The Pwp (E. coli sepsis in dogs [3]; [5]) was 9.8 ± 1 mmHg, the SVR (E. coli sepsis in dogs [3]; [5]) was 1200 ± 262 dynes s cm^−5 and the “Arterial pH” value (E. coli sepsis in dogs [3]; Late Treatment Study, baseline) was 7.34 ± .015. The HR (E. coli sepsis in dogs [3]; Late Treatment Study, baseline) was 60 ± 4 beats/min, the Hct (E. coli sepsis in dogs [3]; Late Treatment Study, baseline) was 34 ± 2% and the Lactate (E. coli sepsis in dogs [3]; Late Treatment Study, baseline) was “.9 ± .2 mM”. For the same molecule, the Pwp (E. coli sepsis in dogs [3]; Late Treatment Study, baseline) was 9.4 ± 1 mmHg, the SVR (E. coli sepsis in dogs [3]; Late Treatment Study, baseline) was 2437 ± 343 dynes s cm^−5 and the “Arterial pH” value (E. coli sepsis in dogs [3]; [6]) was 7.20 ± .04. The HR (E. coli sepsis in dogs [3]; [6]) was 96 ± 8 beats/min, the Hct (E. coli sepsis in dogs [3]; [6]) was 27 ± 5% and the Lactate (E. coli sepsis in dogs [3]; [6]) was 1.3 ± .2 mM. For the same molecule, the Pwp (E. coli sepsis in dogs [3]; [6]) was 10.5 ± 1.4 mmHg and the SVR (E. coli sepsis in dogs [3]; [6]) was 1268 ± 196 dynes s cm^−5.
